Laboratory results: patent US7807176B2, “Polypeptide promoting vascular endothelial cell growth” (Genomidea, Inc., priority 2004, dated 2010)
Entries after “also recorded” stand apart in the source; their conditions may differ.

How the values were obtained:
C57BL/6 female mouse = test: Matrigel plug assay, in vivo angiogenesis; settings: 1 μg/ml in Matrigel, subcutaneous, after 7 days
Procedure: In order to examine the in vivo angiogenesis-promoting activity of F2 peptide, a Matrigel plug assay (Rikitake, Y et al., Arterioscler Thromb Vasc Biol 20, 1006-1012 (2000)) was carried out. Together with any one of VEGF-A (50 ng/ml), F2 peptide (1 μg/ml) or the control peptide (1 μg/ml) or without adding any sample (negative control), Matrigel (0.5 ml, BD Biosciences, Franklin Lakes, N.J.) depleted of growth factor was mixed with 40 U/ml heparin (Aventis Pharma, Tokyo, JP). Then, each mixture was injected subcutaneously into a C57BL/6 female mouse obtained from Oriental Bioscience (Kyoto, JP). After 7 days, the mouse was sacrificed, and the plug was recovered and fixed in methanol. For immune staining, the section was incubated overnight at 4° C. with anti-CD31 (PECAM-1) monoclonal antibody (diluted at 1:100, BD Pharmigen, San Diego, Calif.) and then incubated for 2 hours with Alexa Flour 488 secondary antibody (1:1000, Molecular Probes, Eugene, Oreg.) before photographing. Every experimental protocol was approved by Animal Committee, Medical Department, Graduate School, Osaka University, JP.

microorganism = test: Antimicrobial activity, minimum inhibitory concentration on microtiter plate; format: cell-based; settings: Example 7, method only, MIC not given
Procedure: The antimicrobial activity is evaluated according to US National Committee for Clinical Laboratory Standard (NCCL Documents M7-A3). That is, the minimum concentration of the peptide at which microbial growth is inhibited is determined on a microtiter plate. A microorganism is cultured for 16 hours and then the absorbance at A600 thereof measured. From correlation of predetermined turbidity with colony forming unit (CFU), the […] is diluted with a medium to attain a specified CFU. Each microorganism strain is added at about 5×10^5 CFU/ml (final concentration). 5 mM aqueous solution of each peptide and 1.6 mM solution using a medium are prepared and used in serial dilution. 50 μl peptide at each concentration is pipetted into each well of a microtiter plate into which 50 μl/well microbial suspension has been pipetted (the final concentration of the peptide is 3.1 μM to 800 μM). A well to which the peptide was not added is used as the negative control. […] The concentration shown as results is MIC (μM). According to this method, the antimicrobial activity of the F2 peptide is determined.

c-fos promoter = c-fos promoter assay (c-fos-Luci luciferase); format: cell-based, bovine; settings: FIG. 8
Procedure: To further confirm the proliferation ability, an assay using a promoter of proto-oncogene c-fos, which is activated in the earliest stage of cell proliferation, was carried out. The gene c-fos-Luci having luciferase ligated under this promoter, and a candidate gene, were introduced in a weight ratio of 1:1 by lipofection into bovine vascular endothelial cells, and after 24 to 48 hours, the luciferase activity was measured.

[1] = test system: endothelial nitric oxide synthase (eNOS) mRNA; test: Growth factor mRNA expression level: eNOS; format: cell-based
HEAC endothelial cells = test: Endothelial cell migration, modified Boyden chamber; format: cell-based, human; settings: for migration % Increase: 4 hours
Procedure: A polyvinyl pyrrolidone (PVP)-free polycarbonate membrane having […] (Neuro Probe Inc., Gaithersburg, Md.) was coated overnight with 0.1% gelatin and then washed with phosphate buffered saline to remove an excess of the gelatin coating. Then, 28 μl growth factor-free EBM2 medium supplemented with 1% FBS was arranged in a lower chamber, and the membrane was arranged on the lower chamber. […] The Boyden chamber was incubated at 37° C. for 4 hours. After incubation, the membrane was removed and the cells on the upper side of the membrane were removed. The cells on the lower side of the membrane were stained with Diff-Quick (Sysmex, Hyogo Pref., JP). The cells in each of randomly selected 8 visual fields (×100) were counted.

[2] = test system: fibroblast growth factor (FGF-2) mRNA; test: Growth factor mRNA expression level: FGF-2; format: cell-based
[3] = test system: transforming growth factor (TGF-β) mRNA; test: Growth factor mRNA expression level: TGF-β; format: cell-based

MLSLIFLHRLKSMRKRLDRKLRFWHRKNYP (listed as Homo sapiens) [F2 peptide]
newly formed blood vessels containing intact erythrocytes in the plug (C57BL/6 female mouse; FIG. 12): more newly formed blood vessels containing intact erythrocytes than in the mouse receiving a Matrigel containing the control peptide
newly formed blood vessels by immune staining with anti-CD31 antibody (C57BL/6 female mouse; FIG. 13): more newly formed blood vessels
antimicrobial activity (microorganism): has an antimicrobial activity
activity in c-fos promoter assay of gene fragments in pCDNA3.1 (c-fos promoter): same activity as that of VEGF
effect on mRNA level of eNOS (in words) [1]: did not have any effect
eNOS mRNA Increased Amount [times] ([1]; 24 hrs): 0.1 times
eNOS mRNA Increased Amount [times] ([1]; 48 hrs): 6.1 times
eNOS mRNA Increased Amount [times] ([1]; 72 hrs): 0.7 times
migration % Increase (HEAC endothelial cells; 10 ng/ml): 88.5%
migration % Increase (HEAC endothelial cells; 100 ng/ml): 102.5%
migration % Increase (HEAC endothelial cells; 1 μg/ml): 129.8%
cell migration activity (in words) (HEAC endothelial cells; F2 0.01 to 1 μg/ml, control peptide 1 μg/ml, VEGF 50 ng/ml, FIG. 10): significantly increased in a concentration-dependent manner; also recorded: higher than that of VEGF (50 ng/ml)
effect on mRNA level of FGF-2 (in words) [2]: did not have any effect
FGF-2 mRNA Increased Amount [times] ([2]; 24 hrs): 5.7 times
FGF-2 mRNA Increased Amount [times] ([2]; 48 hrs): 6.0 times
FGF-2 mRNA Increased Amount [times] ([2]; 72 hrs): 9.4 times
effect on mRNA level of TGF-β (in words) [3]: did not have any effect
TGF-b mRNA Increased Amount [times] ([3]; 24 hrs): 2.6 times
TGF-b mRNA Increased Amount [times] ([3]; 48 hrs): 13.6 times
TGF-b mRNA Increased Amount [times] ([3]; 72 hrs): 1.6 times
